{"source": "patent US7659081B2", "about": "“Determination of AM-binding proteins and the association of adrenomedullin (AM) therewith” (The United States of America as represented by the …, priority 1999, dated 2010)", "key": {"[1]": {"system": "E. coli cells (ATCC 35218)", "assay_type": "cell-based", "experimental": "FIG. 9 illustrates the effect of factor H on AM activity. […] Values represent mean and standard deviation of four independent determinations. […] Results are expressed in inhibition units (10 units correspond to 1 mm of diameter in the inhibition halo). MIC values were estimated by performing a linear regression and determining the x-intercepts. […] Values represent mean and standard deviation of the mean of eight determinations.\nAntimicrobial activity was measured using E. coli cells (ATCC 35218, Gaithersburg, Md.) and a radial diffusion assay as previously described (R. I. Lehrer et al., 1991, J. Immunol. Methods 137:167-173). Briefly, bacteria were incorporated into a thin underlay gel that contained 1% agarose, 2 mM HEPES pH 7.2, and 0.3 mg/ml of trypticase soy broth powder. After polymerization of the gel, small wells (10 μl capacity) were carved in the agar. Test substances were added and allowed to diffuse for 3 hr at 37° C. […] The diameters of the inhibition halos were measured to the nearest 0.1 mm and, after subtracting the diameter of the well, were expressed on inhibition units (10 units=1 mm). […]\nFor statistical calculations, MIC values were analyzed by the Student's t test, cAMP values were analyzed with a one-way analysis of variance (ANOVA) and the Tukey's test, and P<0.05 was considered significant."}, "[2]": {"target": "T1, AMBP-1 (factor H) (Homo sapiens, UniProt P08603)", "T1 construct": "Total proteins derived from human plasma (2 μl) were electrophoretically fractionated; from tissue; host or cells: human plasma", "T1 sequence (P08603 19-1231)": "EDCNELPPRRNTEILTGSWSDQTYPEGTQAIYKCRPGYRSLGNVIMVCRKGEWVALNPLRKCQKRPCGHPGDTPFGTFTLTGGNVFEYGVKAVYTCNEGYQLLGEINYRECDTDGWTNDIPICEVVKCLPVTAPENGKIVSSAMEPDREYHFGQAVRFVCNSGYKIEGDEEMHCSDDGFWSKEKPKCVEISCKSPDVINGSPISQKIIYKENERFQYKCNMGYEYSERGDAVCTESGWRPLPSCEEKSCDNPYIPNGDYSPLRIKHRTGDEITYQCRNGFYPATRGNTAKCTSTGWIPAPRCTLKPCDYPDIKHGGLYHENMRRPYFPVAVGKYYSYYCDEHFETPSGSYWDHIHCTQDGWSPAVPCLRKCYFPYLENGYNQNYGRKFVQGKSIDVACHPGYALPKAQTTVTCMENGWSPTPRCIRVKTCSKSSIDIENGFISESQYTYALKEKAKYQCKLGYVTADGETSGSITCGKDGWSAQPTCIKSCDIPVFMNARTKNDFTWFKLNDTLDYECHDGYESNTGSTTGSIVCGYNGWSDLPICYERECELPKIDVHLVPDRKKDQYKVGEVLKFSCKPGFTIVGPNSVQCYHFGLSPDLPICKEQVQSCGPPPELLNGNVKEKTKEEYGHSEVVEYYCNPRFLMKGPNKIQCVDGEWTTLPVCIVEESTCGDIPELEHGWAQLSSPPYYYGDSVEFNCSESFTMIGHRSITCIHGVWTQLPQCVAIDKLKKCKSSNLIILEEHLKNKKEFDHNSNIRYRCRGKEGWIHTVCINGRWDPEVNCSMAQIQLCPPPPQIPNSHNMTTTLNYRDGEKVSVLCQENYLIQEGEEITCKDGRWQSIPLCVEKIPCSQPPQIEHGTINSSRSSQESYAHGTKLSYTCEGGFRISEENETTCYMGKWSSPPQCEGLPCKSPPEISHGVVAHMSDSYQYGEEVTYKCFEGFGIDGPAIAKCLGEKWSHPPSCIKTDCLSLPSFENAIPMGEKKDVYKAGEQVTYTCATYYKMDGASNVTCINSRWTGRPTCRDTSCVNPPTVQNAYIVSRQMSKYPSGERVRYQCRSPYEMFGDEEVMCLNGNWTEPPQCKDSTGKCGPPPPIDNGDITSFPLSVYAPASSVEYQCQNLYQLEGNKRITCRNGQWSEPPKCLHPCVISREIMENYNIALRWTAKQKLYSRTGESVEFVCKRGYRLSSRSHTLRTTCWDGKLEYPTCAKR", "test": "Ligand blot competition of labeled AM binding to plasma AMBP-1", "conditions": "7 μM unlabeled peptide, preincubation 6 hr at 4° C.", "experimental": "Total proteins derived from human plasma (2 μl) were electrophoretically fractionated on 3-8% Tris-acetate gel (Novex, San Diego, Calif.) under non-reducing conditions. For the ligand blotting experiment, the proteins were transferred to a […] nitrocellulose membrane that was incubated for […] with 1% Nonidet P-40 (NP-40). Non-specific binding was further blocked with a 2 hr incubation in TBS containing 0.1% ATC. Incubations with 70 nM AM labeled with biotin, fluorescein, or DNP were carried out overnight at 4° C. in blocking buffer containing 0.1% TWEEN® 20 nonionic detergent. For biotin detection, the ligand blot was incubated with an avidin-biotin-peroxidase complex and the AEC reagent (Vector Laboratories, Inc., Burlingame, Calif.). For fluorescein and DNP, the ligand blots were incubated 1 hr at room temperature with rabbit anti-fluorescein or anti-DNP IgG, respectively, (1:1000 in incubation buffer; Molecular Probes, Inc.). Anti-rabbit antibody labeled with alkaline phosphatase (1:2000; Dako Corporation, Carpenteira, Calif.) was added for 0.5 hr, and the blot was developed using 4-nitro blue tetrazolium chloride/5-bromo-4-chloro-3-indolyl phosphate (NBT/BCIP) as the color-substrate solution (Roche Molecular Biochemicals, Indianapolis, Ind.).\nFollowing this preincubation, labeled full-length AM was introduced and incubated overnight at 4° C."}, "[3]": {"system": "AM-binding protein", "test": "Competitive displacement of 125I-AM on radioligand blot strips", "conditions": "increasing concentrations, 10^−10 to 10^−6 M", "experimental": "Further detection and characterization of AM-BPs were performed using radioligand blotting procedures similar to those described for IGF binding proteins in plasma (P. Hossenlopp et al., 1986, Anal. Biochem. 154:138-146). Briefly, plasma or serum from the ten species was diluted 1:5 with water and further mixed 1:2 with SDS Tris-glycineglycerol loading buffer and incubated for 10 min at 70° C. Plasma or serum volumes equivalent to 1.5 μl were loaded onto 10% acrylamide gels under non-reducing conditions. Proteins were separated at 115 v for 0.5 hr and transferred to 0.2 μm nitrocellulose using a semi-moist transfer (Bio-Rad Hercules, Calif.) at 18 v for 42 min. Molecular weight markers (29 kD, 43 kD, 66 kD, 78 kD, and 116 kD) were added to complementary lanes on each gel to assess the relative sizes of the resolved proteins.\nNitrocellulose blots were incubated for 15 min with 1.5% NP-40 (Sigma, St. Louis, Mo.). Nonspecific binding was further blocked with a 4 hr incubation of the nitrocellulose in phosphate buffered saline containing either 1% BSA (RIA Grade, SIGMA, St. Louis, Mo.) or 1% AHC. Incubations with radiolabeled recombinant human ^125I-AM were performed overnight at room temperature with agitation, with 80,000 CPM ^125I-hAM per 5 ml protein blocking matrix. […]"}, "[4]": {"system": "insulin secretion", "conditions": "cited from earlier work"}}, "data": [{"smiles": "CC[C@H](C)[C@H](NC(=O)[C@H](CCC(N)=O)NC(=O)[C@H](Cc1c[nH]cn1)NC(=O)[C@H](C)NC(=O)[C@H](CC(C)C)NC(=O)[C@H](CCCCN)NC(=O)[C@H](CCC(N)=O)NC(=O)[C@@H](NC(=O)[C@@H](NC(=O)[C@@H]1CSSC[C@H](NC(=O)CNC(=O)[C@H](Cc2ccccc2)NC(=O)[C@H](CO)NC(=O)[C@H](CCCNC(=N)N)NC(=O)[C@H](CC(C)C)NC(=O)CNC(=O)[C@H](CCC(N)=O)NC(=O)[C@H](Cc2ccccc2)NC(=O)[C@H](CC(N)=O)NC(=O)[C@H](CC(N)=O)NC(=O)[C@H](CCSC)NC(=O)[C@H](CO)NC(=O)[C@H](CCC(N)=O)NC(=O)[C@H](CCCNC(=N)N)NC(=O)[C@@H](N)Cc2ccc(O)cc2)C(=O)N[C@@H](CCCNC(=N)N)C(=O)N[C@@H](Cc2ccccc2)C(=O)NCC(=O)N[C@@H]([C@@H](C)O)C(=O)N1)[C@@H](C)O)C(C)C)C(=O)N[C@@H](Cc1ccc(O)cc1)C(=O)N[C@@H](CCC(N)=O)C(=O)N[C@@H](Cc1ccccc1)C(=O)N[C@H](C(=O)N[C@@H](CC(=O)O)C(=O)N[C@@H](CCCCN)C(=O)N[C@@H](CC(=O)O)C(=O)N[C@@H](CCCCN)C(=O)N[C@@H](CC(=O)O)C(=O)N[C@@H](CC(N)=O)C(=O)N[C@H](C(=O)N[C@@H](C)C(=O)N1CCC[C@H]1C(=O)N[C@@H](CCCNC(=N)N)C(=O)N[C@@H](CO)C(=O)N[C@@H](CCCCN)C(=O)N[C@H](C(=O)N[C@@H](CO)C(=O)N1CCC[C@H]1C(=O)N[C@@H](CCC(N)=O)C(=O)NCC(=O)N[C@@H](Cc1ccc(O)cc1)C(N)=O)[C@@H](C)CC)C(C)C)[C@@H](C)O", "note": "[AM, Adrenomedullin]", "values": [{"measurement": "MIC value", "setting": "[1]", "result": "18.4 ± 1.3", "unit": "µg/mL"}, {"measurement": "Competition for labeled AM/AMBP-1 complex on ligand blot", "setting": "[2]", "result": "able to dissociate the AM/AMBP-1 (AM/fH) complex"}, {"measurement": "Displacement of 125I-AM from AMBPs", "setting": "[3]", "result": "linear competitive displacement"}, {"measurement": "Insulin secretion", "setting": "[4]", "result": "inhibits insulin secretion in a dose-dependent manner"}]}]}
